Reference: EP4541363A1, “USE OF THE (+)-ELATOL COMPOUND FOR TREATING OR PREVENTING A NAEGLERIA FOWLERI INFECTION” (Universidad de la Laguna, priority 2022, dated 2023)
Values after ≈ are worked out from the molar mass of the structure shown. Where two headings read alike, the source gives them in different places.

Columns and labels:
[1] = tested on: Naegleria fowleri ATCC® 30808™; test: In vitro activity against Naegleria fowleri, alamarBlue colorimetric assay, strain ATCC 30808; assay type: cell-based; conditions: for IC50 / ATCC® 30808™ IC50: strain ATCC® 30808™, 48 hours at 37°C, mean ± standard deviation; for ATCC® 30808™ SI: selectivity index, CC50 in J774A.1 versus IC50 in strain ATCC® 30808™
Method: (§1) Two strains of Naegleria fowleri obtained from the American Type Culture Collection (ATCC® 30808™ and ATCC® 30215™) were used (LG Promochem, Barcelona, Spain). Both strains were grown in 2% (w/v) Bacto Casitone (Thermo Fisher Scientific, Madrid, Spain) supplemented with 10% (v/v) fetal bovine serum, 0.3 µg/ml penicillin G sodium salt and 0.5 mg/ml streptomycin sulphate (Sigma-Aldrich, Madrid, Spain) at 37°C.
(§2) All tested compounds were dissolved in dimethyl sulfoxide (DMSO). The in vitro activity of the selected compounds was assessed by a colorimetric assay based on the alamarBlue® reagent. Amoebas were seeded in 96-well plates at a concentration of 2 × 10^5 cells/ml ([…]). Next, serial dilutions (in the same medium as the amoebas) of the compound were prepared and added ([…]) to the wells containing the Naegleria fowleri cells. Lastly, 10% of the total volume of alamarBlue® was added to the wells and incubated under gentle stirring at 37°C for 48 hours. After that time, the emitted fluorescence was read on an EnSpire® Multimode Plate Reader (PerkinElmer, Spain) using a […] (Rizo-Liendo A. et al. "In Vitro Activity of Statins against Naegleria fowleri."; Pathog, vol. 8, no. 3, p. 122 - 2019; doi: 10.3390/ pathogens8030122).

[2] = Cytotoxicity assay based on alamarBlue reagent; assay type: cell-based; conditions: mouse, cytotoxic concentration 50 against murine macrophages J774A.1, 24 hours at 37°C, 5% CO2, mean ± standard deviation
Method: (§3) The cells were cultured in DMEM (Dulbecco's Modified Eagle's Medium) supplemented with 10% fetal bovine serum and 10 µg/ml gentamicin (Sigma-Aldrich, Madrid, Spain). The culture was maintained at 37°C in a 5% CO2 atmosphere. To assess cytotoxicity, an assay based on the alamarBlue® reagent was carried out. Briefly, the murine macrophages (2 × 10^5 cells/ml) were incubated with serial dilutions of the test compound that were performed in the same culture medium. Lastly, alamarBlue® was added to each well and kept at 37°C and 5% CO2 for 24 hours.

[3] = tested on: Naegleria fowleri ATCC® 30215™; test: In vitro activity against Naegleria fowleri, alamarBlue colorimetric assay, strain ATCC 30215; assay type: cell-based; conditions: for IC50: Naegleria fowleri, ATCC30215; for IC50 / ATCC® 30215™ IC50: Table 2, strain ATCC® 30215™, 48 hours at 37°C, mean ± standard deviation; for ATCC® 30215™ SI: selectivity index, CC50 in J774A.1 versus IC50 in strain ATCC® 30215™
Method: as §1, §2

[4] = tested on: murine macrophages J774A.1; test: Cytotoxicity assay based on alamarBlue reagent; assay type: cell-based; conditions: cytotoxic concentration 50 against murine macrophages J774A.1; 24 hours at 37°C, 5% CO2; mean ± standard deviation
Method: as §3

Naegleria fowleri = conditions: infected PAM patients; alone or in combination with other medicines; cited from earlier work
[5] = Naegleria fowleri, ATCC30808, Table 2, read-out: ATCC® 30808™ IC50

CCCCCCCCCCCCCCCCOP(=O)([O-])OCC[N+](C)(C)C [Miltefosine]
IC50 [1, 5]: 15.8 ± 1.72 µg/mL (≈ 38.7 µM)
ATCC® 30808™ SI [1]: 3.30
CC50 at 24 h [2]: 52.1 ± 3.61 µg/mL (≈ 128 µM)
IC50 [3]: 33.2 ± 2.95 µg/mL (≈ 81.6 µM)
ATCC® 30215™ SI [3]: 1.56

(-)-3,10-dibromo-4-chloro-alpha-chamigrene
IC50 ([1]; Table 1): > 25 µg/mL

C=C1C[C@@H](O)[C@@H](Br)C(C)(C)[C@]12CC[C@](C)(Cl)[C@@H](Br)C2 [(-)-cartilagineol]
IC50 ([1]; Table 1): > 25 µg/mL

C=C1CC[C@@H](Br)C(C)(C)[C@@]12CC[C@@](C)(Br)[C@H](Cl)C2 [(+)-obtusane]
IC50 ([1]; Table 1): > 25 µg/mL

C=C1CC(O)C(Br)C(C)(C)C12CC=C(C)CC2 (single isomer, unassigned; (-)) [(-)-10-bromochamigra-3,7(14)-dien-9-ol]
IC50 ([1]; Table 1): > 25 µg/mL

C=C1C[C@H](O)[C@H](Br)C(C)(C)C12CCC(C)(Cl)C(Br)C2 (single isomer, unassigned; (-)) [(-)-rogiolol]
IC50 ([1]; Table 1): 8.18 ± 0.92 µg/mL (≈ 19.7 µM)
ATCC® 30808™ IC50 ([1]; Table 2): 8.18 ± 0.92 µg/mL
ATCC® 30808™ SI [1]: 5.57
CC50 [4]: 45.56 ± 7.80 µg/mL (≈ 110 µM)

C=C1C[C@H](O)CC(C)(C)[C@@]12CCC(C)=C(Cl)C2 [(+)-debromoelatol]
IC50 ([1]; Table 1): > 25 µg/mL

C=C1CC(O)C(Br)C(C)(C)C12CCC(C)=C(Cl)C2 (single isomer, unassigned; (+)) [(+)-elatol]
IC50 ([1]; Naegleria fowleri, ATCC30808, Table 1, read-out: IC50): 0.36 ± 0.03 µg/mL (≈ 1.08 µM)
IC50 [1, 5]: 0.36 ± 0.03 µg/mL (≈ 1.08 µM)
ATCC® 30808™ SI [1]: 57.02
CC50 at 24 h ([2]; j774a.1 macrophages): 20.5 ± 4.33 µg/mL (≈ 61.5 µM)
IC50 [3]: 0.38 ± 0.06 µg/mL (≈ 1.14 µM)
ATCC® 30215™ SI [3]: 54.03

C=C1C[C@@H](O)[C@@H](Br)C(C)(C)[C@]12CC[C@@](C)(O)[C@@H](Cl)C2 [(-)-dendroidiol]
IC50 ([1]; Table 1): > 25 µg/mL

C=C1C[C@H](O)[C@H](Br)C(C)(C)[C@@]12CCC(C)=C(Cl)C2 [(-)-elatol]
IC50 ([1]; Table 1): 12.27 ± 2.68 µg/mL (≈ 36.8 µM)
ATCC® 30808™ IC50 ([1]; Table 2): 12.27 ± 2.68 µg/mL
ATCC® 30808™ SI [1]: 4.39
CC50 [4]: 53.91 ± 4.28 µg/mL (≈ 162 µM)

debromolauriterol
ATCC® 30808™ IC50 ([1]; Table 2): 5.54 ± 1.19 µg/mL
ATCC® 30808™ SI [1]: 2.74
CC50 [4]: 15.17 ± 2.80 µg/mL
ATCC® 30215™ IC50 [3]: 14.13 ± 2.37 µg/mL
ATCC® 30215™ SI [3]: 1.07

lauriterol
ATCC® 30808™ IC50 ([1]; Table 2): 3.96 ± 0.76 µg/mL
ATCC® 30808™ SI [1]: 5.97
CC50 [4]: 23.65 ± 2.30 µg/mL
ATCC® 30215™ IC50 [3]: 3.45 ± 0.63 µg/mL
ATCC® 30215™ SI [3]: 6.85

C[C@@H]1[C@H](O)[C@@H](C)/C=C/C=C/C=C/C=C/C=C/C=C/C=C/[C@H](O[C@@H]2O[C@H](C)[C@@H](O)[C@H](N)[C@@H]2O)C[C@@H]2O[C@](O)(C[C@@H](O)C[C@@H](O)[C@H](O)CC[C@@H](O)C[C@@H](O)CC(=O)O[C@H]1C)C[C@H](O)[C@H]2C(=O)O [Amphotericin B]
IC50 [1, 5]: 0.11 ± 0.03 µg/mL (≈ 0.119 µM)
ATCC® 30808™ SI [1]: > 1818.18
CC50 at 24 h ([2]; j774a.1 macrophages): > 200 µg/mL
IC50 [3]: 0.15 ± 0.02 µg/mL (≈ 0.162 µM)
ATCC® 30215™ SI [3]: > 1333.33
patients recover at least partially after its administration (Naegleria fowleri): 8%

C=C1C[C@@H](O)[C@@H](Br)C(C)(C)[C@]12CC[C@](C)(Br)[C@@H](Cl)C2 [(+)-obtusol]
IC50 ([1]; Table 1): > 25 µg/mL
